Counter-ions that a name gives are not always drawn.
Experiment: Timolol concentration of the aqueous humor after ophthalmic administration, collected with the bodily fluid-collecting device (LC/MS/MS)
Type: in vivo
Details: rabbit; single 40 μl ophthalmic dose of 0.5% timolol maleate sustained ophthalmic solution; aqueous humor 4 hours after administration; Method 1 (0.25, 0.5, 1, 2, 4 h) vs Method 2 (4 h only); FIG. 6
Procedure: Using a micropipette, a 0.5% timolol maleate sustained ophthalmic solution (produced by Santen Pharmaceutical Co., Ltd., Timoptol (registered trademark) XE ophthalmic solution 0.5%) was administered as a single dose of 40 μl near the upper portion of the bulbar conjunctiva of rabbit eyeballs retained using a retention can. The administration was performed on both eyes. A rabbit was retained using a retention can. 30 μl of a 10-fold diluted solution (dilution medium: physiological saline) of a 0.4% oxybuprocaine hydrochloride ophthalmic solution (produced by Santen Pharmaceutical Co., Ltd., Benoxil (registered trademark) ophthalmic solution 0.4%) was ophthalmically administered to the retained rabbit, and local anesthesia was applied. After gently stimulating the cornea with the tip of tweezers and confirming the disappearance of the corneal reflex, a lid retractor was attached. In the Example, a device with a 20-μl capillary attached to a 34 G injection needle was used as the bodily fluid-collecting device. After retaining the eyeball by sandwiching the upper bulbar conjunctiva with tweezers, the needle tip of the bodily fluid-collecting device was inserted into the anterior chamber via the cornea by two-step puncture while checking the curved surface of the cornea. […] After deproteinizing each sample, the timolol concentration of the aqueous humor was measured using the LC/MS/MS method.

timolol concentration of the aqueous humor at the final collection (Method 1, repeated collection from the same eye) compared with one-point collection (Method 2): equivalent
Compound: CC(C)(C)NC[C@H](O)COc1nsnc1N1CCOCC1 [timolol, timolol maleate]
